Assay results: patent publication US12319752B2, “Heparin-binding cationic peptide self-assembling peptide amphiphiles useful against drug-resistant bacteria” (priority 2016, dated 2025)
Residues, ends and D or L forms follow the SMILES beside them. *: point of attachment. Palmitoyl = CCCCCCCCCCCCCCCC(=O)*

Experiments:
S. aureus = test: Bacterial growth inhibition (growth curves, OD562, 20 h); assay type: cell-based, Staphylococcus aureus (ATCC #25923)
Experimental: Gram-positive (S. aureus and MRSA) and Gram-negative (E. coli and MDR E. coli) bacteria were incubated with peptide concentrations ranging from 20 to 100 μM, and time-lapsed bacterial growth was monitored for 20 hours by determining the optical density at 562 nm (O.D. 562 nm). […] At the highest concentration tested (100 μM), the time to exponential growth phase of S. aurues was delayed by about 18 h (FIG. 5B), and was prolonged by almost 13 h for MRSA (FIG. 5A), while bacteria incubated without ACA-PA entered the exponential growth phase within 4 h. Gram-positive bacteria were also susceptible to the ACA-PA even below their CMC.
This assay was performed to investigate the inhibitory effects of each peptide against Gram-positive Staphylococcus aureus (S. aureus, ATCC #25923) and methicillin-resistant S. aureus (MRSA, ATCC #43300), as well as Gram-negative Escherichia coli (E. coli, ATCC #25922), and multidrug-resistant E. coli (MDR E. coli, ATCC #BAA-2471). In all experiments, solutions of each peptide at the concentrations from 20 μM to 100 μM in 3% Tryptic Soy Broth (TSB) media were freshly prepared. A single colony of bacteria was isolated from a stock agar plate and cultured overnight in 4 mL of 3% TSB on a shaking incubator set at 200 rpm and 37° C. The bacteria culture was adjusted to an optical density at 562 nm (OD562) to about 0.52 (10^9 cells/mL), and the resulting bacteria suspension was subsequently diluted to about 10^6 colony forming units (CFU) per mL in each sample. The control samples were bacteria incubated in TSB media without peptides. The bacteria were incubated inside a spectrophotometer (Spectra-Max Paradigm, Molecular Devices, Sunnyvale, CA) at 37° C. under static conditions for 20 h, and the bacterial growth curves were measured in terms of turbidity at OD562 every 2 minutes. The normalized OD562 values of samples were calculated by subtracting the […].

E. coli = test: Viable colony count assay (bactericidal effect, 4 h); assay type: cell-based, Escherichia coli (ATCC #25922)
Experimental: The bactericidal effects of the peptides were examined using a viable colony count assay as well as the live/dead staining assay. For the viable colony count assay, bacteria were treated with peptides for 4 h and the resulting viable bacterial density of each sample was expressed by log10[CFU/mL]. For the Gram-positive bacteria tested, the decrease in bacterial density was dependent on the concentration of the ACA-PA (FIG. 8A). […] As for Gram-negative E. coli and MDR E. coli bacteria (FIG. 8B), the ACA nanorods, wherein the PA were added at a concentration above their CMC, had potent bactericidal effects. For example, the ACA nanorods at concentrations over 60 μM reduced the colony forming units of Gram-negative bacteria by about a five log unit reduction after 4 h compared with the untreated negative control sample.
The viable count assay was performed to quantify the bactericidal activity of each peptide. Stock solutions of peptides were diluted in 3% TSB media to concentrations ranging from 20 μM to 100 μM immediately before experiments. Heparin-ACA-PA were also prepared by mixing the ACA-PA stock solution with heparin (sodium salt from porcine intestinal mucosa, Sigma, St. Louis, MO) to 1:1, 1:2 and 1:3 weight ratios in water, and a final concentration of ACA-PA in the heparin-ACA-PA at each heparin weight ratio was adjusted to 80 μM for each experiment. The bacteria (10^6 CFU/mL) were incubated with peptides at 37° C. for 4 h. After incubation, serial dilutions of samples were plated on TSB agar and then incubated at 37° C. overnight. The colonies from each spot were manually counted, and the CFU number for each sample was determined. Experiments were conducted in triplicate and results were expressed as the log 10 values of the CFU number in each sample. Data were expressed by stand error of the mean (±S.E.M.) and N=3, *p<0.05 compared with control samples and #p<0.05 compared with bacteria treated with 40 μM of ACA-PA.

MDR E. coli = test: Bacterial membrane disruption by TEM of ultrathin sections; assay type: cell-based, multidrug-resistant E. coli (MDR E. coli); conditions: 4 h
Experimental: TEM was used to reveal the damage in bacterial cell envelopes caused by ACA-PA treatment. Drug-resistant bacterial strains (MRSA and MDR E. coli) were exposed to ACA-PA at concentrations below (40 μM) and above (80 μM) the CMC, and ultrathin sections of the bacterial cultures were visualized by TEM.
The ACA-PA at a concentration lower than CMC seemed to only influenced the outer bacteria membrane, but were inadequate to disrupt the inner bacteria membranes.
Bacterial membrane disruption was observed from the ultrathin sectioned sample using TEM. […] After treatment with 80 μM ACA nanorods, bacterial cell membranes were severely damaged with complete cytoplasm leakage. […] On the damaged membranes, blisters appeared to originate from the pores. This explains the reason for the different antibacterial activity of ACA-PA on Gram-negative bacteria compared to the concentration-dependent toxicity on Gram-positive bacteria. The cell envelope of Gram-positive has a cytoplasmic membrane surrounded by a thick peptidoglycan layer with lipoteichoic acid. The antibacterial ACA-PA could penetrate the Gram-positive bacterial membrane by charge and hydrophobicity, although the PA were in a dispersed, non-assembled form. However, such dispersed PA were not able to penetrate the outer membrane of Gram-negative bacteria. […]

CCCCCCCCCCCCCCCC(=O)N[C@H](C(=O)N[C@H](C(=O)N[C@H](C(=O)N[C@H](C(=O)N[C@@H](CCCCN)C(=O)N[C@@H](CCCCN)C(=O)N[C@@H](CCCCN)C(=O)N[C@@H](CCCCN)C(=O)NCC(=O)N[C@@H](C)C(=O)N[C@@H](CCCCN)C(=O)N[C@@H](CCCCN)C(=O)N[C@@H](C)C(=O)N[C@@H](CCCNC(=N)N)C(=O)N[C@@H](C)C(=O)N[C@@H](C)C(=O)N[C@@H](CCCCN)C(=O)N[C@@H](CCCCN)C(=O)N[C@@H](C)C(=O)N[C@@H](CCCNC(=N)N)C(=O)N[C@@H](C)C(=O)O)C(C)C)C(C)C)C(C)C)C(C)C [ACA-PA, C16-V4K4G(AKKARA)2 (SEQ ID NO: 7)] (Palmitoyl-VVVVKKKKGAKKARAAKKARA-OH; N-terminus and C-terminus assumed)
delay of time to exponential growth phase (S. aureus; 100 μM): about 18 h | bacterial growth inhibition (S. aureus; 20 to 100 μM, 20 h): remarkably inhibited the proliferation | susceptibility of bacterial growth (S. aureus; below the CMC): susceptible | decrease in bacteria density (E. coli; E. coli (Gram-negative), 60 to 100 μM): 10,000 fold | reduction in bacteria density (E. coli; E. coli, concentrations lower than CMC, 4 h): no significant reduction in Gram-negative bacteria density | reduction of colony forming units (E. coli; E. coli, over 60 μM, 4 h, vs untreated control): five | bacterial membrane disruption (TEM) (MDR E. coli; 40 μM): blisters only on the outer cell walls | bacterial membrane disruption (TEM) (MDR E. coli; 80 μM): disrupted bacteria envelopes with loosened and disconnected membranous structures
